Experimental findings from patent US20040120954A1, “Regulation of mt1-mmp activity” (priority 2000, published 2004) are described below.

Experiment [1] concerns MT1-MMP. Kind of experiment: Activation of proMMP-2 by MT1-MMP on the cell surface of transfected cells (gelatin zymography). The format is cell-based, human. The conditions noted are these: transfected COS1 cells, exogenous purified proMMP-2 (FIGS. 2, 20). The protocol: (§1) Gelatin zymography was conducted using an SDS-polyacrylamide gel (PAGE) containing gelatin (0.8 mg/ml) (Itoh, Y. et al., J. Biol. Chem., 273: 24360-24367, 1998). The samples were mixed with a SDS-PAGE loading buffer without a reducing agent and subjected to electrophoretic analysis at room temperature. Enzyme activity was visualized as a negative staining area with Coomassie Brilliant Blue R-250.
(§2) The expression construct for FLAG epitope ([…]-tagged MT1-MMP (MT1-F) described in Itoh, Y. et al., J. Biol. Chem., 274: 34260-34266, 1999 was used as a template to generate cDNA for MT1Cat-F (A Ile^318-Gly^535) by the PCR extension method of Ho et al., (Ho, S. N. et al., Gene, 77: 51-59, 1989). The cDNA was subcloned into pSG5 (Stratagene, CA, USA). The PCR-generated fragments were confirmed by DNA sequencing. COS1 cells were transfected with the expression vector for MT1-MMP mutant; MT1-F or MT1Cat-F, or a vector alone (Mock). Expression vectors for each protein were transfected using FuGENE6™ (Roche Molecular Biochemicals) according to the manufacturer's instructions. COS1 cells were seeded in 6-well plates at 1.5×10^5/well at 16 hrs before the transfection was performed. The COS1 cells were maintained in a HAM F-12 medium or DMEM containing 10% fetal bovine serum in a humidified incubator at 37° C. At 48 hrs after the transfection, the cells were collected for use in the experiments. The cells were incubated in the presence of purified proMMP-2 in a serum-free medium (0.25 μg/ml) at 37° C. for 18 hrs. Cell lysates were tested for the expression of the mutants, while culture supernatants were tested for the activation of proMMP-2.
(§3) To investigate roles of dimer formation upon the activation of proMMP-2, MT1-F was introduced into COS1 cells together with MT1PEX-F. The co-introduced cells were reacted with exogenously added proMMP-2. Thus, COS1 cells were co-transfected with the MT1-F and MT1PEX-F at indicated DNA amount ratios. Next, purified proMMP-2 (0.25 μg/ml) in a serum-free medium was reacted with the resulting cells at 37° C. for 18 hrs. MMP-2 in the culture supernatant was analyzed by gelatin zymography, and the cell lysates were subjected to Western blotting analysis using a monoclonal anti-FLAG M2 antibody.
(§4) Next, to determine if MT1PEX-F affects the catalytic activity of MT1-MMP on the cell surface or not, tests for gelatin degrading activity and binding capacity to TIMP-2 were conducted using cells transfected in the same incubator. As shown in FIGS. 12 through 14, CHO-K1 cells were transfected with an expression vector for MT1-F, MT1-F/MT1PEX-F or MT1Cat-F, or a vector alone (Mock). The cells were then treated with trypsin, and separately seeded to: DQ™ gelatin-coated cover slips for testing the proteolytic activity (FIG. 13); and 24-well plates for TIMP-2 binding assay (FIG. 12) and for the activation of proMMP-2 (FIG. 14). Transfected cells on the DQ™ gelatin-coated cover slip as shown in FIG. 13 were incubated in a medium at 37° C. for 18 hrs, and the generated fluorescence was analyzed using confocal microscopy. Transfected cells on the 24-well plate as shown in FIG. 12 were incubated with 25 nM ^125I-labeled TIMP-2 in the presence or absence of BB-94 (50 μM) at 0° C. for 1 hr. MT1-MMP specific binding was calculated by subtracting the datum obtained in the presence of BB-94 (50 μM) from each datum derived from the corresponding experiments. […] DQ™ gelatin is a fluorescence-quenched gelatin, which fluoresces upon proteolytic cleavage. […]

The target of experiment [2] is T1, MT1-MMP (Homo sapiens, UniProt P50281).
T1 construct: expressed in transfected cells
The experiment is described as above. The format is cell-based. The protocol: as §1, §2, §3, §4

The next experiment deals with HT1080 cells. Kind of experiment: Matrigel invasion assay (modified Boiden-chamber method). The format is cell-based, human. To be noted: HT1080 cells transfected with the expression plasmid (with GFP), 14 hrs (FIG. 15). As to the method:
Matrigel Invasion Chambers were prepared according to the manufacturer's instructions (Becton Dickinson Labware, MA, USA) by coating, with […] of Matrigel, the 8 μm-pore sized membrane of the culture inserts for 24-well plates (Falcon). A 0.5 ml aliquot of transfected HT1080 cell suspension at 0.1×10^5/ml was seeded on the upper chamber and incubated at 37° C. in a humidified chamber. Hepatocyte growth factor (Toyobo; 10 ng/ml) was added to the lower chamber as a chemo-attractant. After 14 hrs of incubation, cells remaining on the upper surface of the membrane were removed, and cells on the lower surface were fixed with 3% para-formaldehyde in PBS. Green fluorescent protein (GFP)-positive cells that had invaded to the lower, surface were counted using fluorescence microscopy (×40).
Cells were transiently transfected with a vector for MT1PEX-F, together with an expression vector for green fluorescent protein (GFP), and GFP-positive invading cells were counted under fluorescence microscopy. HT1080 cells were co-transfected with expression vectors for MT1PEX-F and GFP, or with an expression vector for GFP alone. The cells were assayed for Matrigel invasion as described below. The modified Boiden-chamber method was carried out. […]
TIMP-2 at 0.5 μg/ml was added to the upper and lower chambers. GFP-positive cells on the surface of the lower chamber were counted using fluorescence microscopy. […]

Take “MT1Cat-F: PEX-deleted FLAG-tagged MT1-MMP (Δ Ile318-Gly535)”: the “activation of proMMP-2 by cells expressing the mutant” value in the experiment with MT1-MMP [1] is reported as “did not activate at all”.

As to “MT1PEX-F: Catalytic domain-deleted FLAG-tagged MT1-MMP (Δ Tyr112-Pro312), expressed by transfection”, in the experiment with MT1-MMP [2] (CHO-K1 cells co-transfected with MT1-F and MT1PEX-F (FIG. 14)), the “effect on the activation of proMMP-2” value is on record as “completely inhibited the activation of proMMP-2”. Besides, the “effect on the activation of proMMP-2 by MT1-F” value in the experiment with MT1-MMP [2] (COS1 cells co-transfected at indicated DNA ratios, proMMP-2 0.25 μg/ml, 37° C., 18 hrs (FIGS. 11 and 28)) is recorded as “inhibited the activation of proMMP-2 by MT1-F, in dependence upon the expression level”. In the experiment with HT1080 cells, the “suppression of Matrigel invasion” value was found to be 70%.
